Patent US7759382B2, “Acylated amino acid amidyl pyrazoles and related compounds” (Elan Pharmaceuticals, Inc., priority 2003, dated 2010)

Test system: β-amyloid peptide release and/or its synthesis
Assay: inhibition of β-amyloid peptide release and/or its synthesis (test not specified)
Format: cell-based
Conditions: statement in words only; no assay or value given

SMILES | inhibits β-amyloid peptide release and/or its synthesis
CC(C)(C)c1cc(NC(=O)c2cccc(N(C=O)Cc3cc(F)cc(F)c3)c2)[nH]n1 [Example 110] | inhibits β-amyloid peptide release and/or its synthesis
CC(C)(C)c1cc(NC(=O)c2cccc(Nc3cc(F)cc(F)c3)c2)[nH]n1 [Example 111, N-(5-tert-Butyl-2H-pyrazol-3-yl)-3-(3,5-difluoro-phenylamino)-benzamide] | inhibits β-amyloid peptide release and/or its synthesis
